Like-named read-outs stand apart in the source and are kept apart here.
Tests used:
[1] = test system: classical complement pathway; test: CH50 assay, human serum, sensitized sheep red blood cell hemolysis; type: cell-based; settings: sensitized sheep red blood cells, 1 hour at 37° C., read-out: IC50, inhibition of human complement-mediated red blood cell hemolysis
Protocol: To evaluate the strength of blockade of the classical complement pathway by the low molecular weight products of the aurin tricarboxylic acid complex, (i.e. ATA plus AQA plus AHA), the standard CH50 assay was employed. Sheep red blood cells were sensitized by incubation overnight with rabbit anti sheep red blood cell antibody. Then dilutions of serum, with and without various amounts of the low molecular weight aurin tricarboxylic acid fraction (ATAC), were incubated with the sensitized red blood cells for 1 hour at 37° C. The incubates were centrifuged at 5,000 rpm for 10 min. The hemoglobin released into the serum from red blood cells that had been destroyed by complement attack, was determined by reading the optical density (OD) at 405 nm. As a positive control, red blood cells were 100% lysed with water, and as a negative control, no serum was added to the incubate.

[2] = target: T1, membrane attack complex (addition of C9 to C5b678) (Homo sapiens, UniProt P02748); test: Western blot variation of CH50 assay: stage of complement blockade; type: biochemical; settings: human serum diluted 16 fold, pre-treated 30 min; blots with antibodies to C6, C7, C8, C9
T1 construct: from tissue; host or cells: normal human serum (with antibody-sensitized sheep red blood cells)
Protocol: Normal human serum was pre-treated with aliquots of aqueous solutions of ATA, AQA, AHA and ATAC prior to adding sheep red blood cells sensitized to human complement. The reaction mixtures were incubated at 37° C. for 1 h. Aliquots were loaded on 10% polyacrylamide gels and subjected to SDS-PAGE. Proteins were transferred to membranes and developed with appropriate primary antibodies to complement proteins (Table 1): FIG. 4A: Western blots of membranes developed with antibodies to C1q, C3, C4 and C5. Lane 1, untreated serum; lane 2, serum with red blood cells added; lane 3 serum with red blood cells protected with ATAC. Notice that in untreated serum, bands for C1q, C3, C4, and C5 were readily detected. In lanes 2 and 3, the activated products C3d, C4d, and C5a were detected indicating opsonization had taken place. […] It can be seen that C5b-9 is […] detected upon probing with C6, C7, C8 and C9, thus establishing that the ATAC block was at the C9 stage. […]
To determine at which stage of assembly of the membrane attack complex was being blocked, additional analyses were carried. […] The C6 antibody detected C5b6, C5b67, and C5b678. The C7 antibody detected C5b67 and C5b678, while the C8 antibody detected C5b678. […]

T1 sequence (P02748 22-559, one chain of several): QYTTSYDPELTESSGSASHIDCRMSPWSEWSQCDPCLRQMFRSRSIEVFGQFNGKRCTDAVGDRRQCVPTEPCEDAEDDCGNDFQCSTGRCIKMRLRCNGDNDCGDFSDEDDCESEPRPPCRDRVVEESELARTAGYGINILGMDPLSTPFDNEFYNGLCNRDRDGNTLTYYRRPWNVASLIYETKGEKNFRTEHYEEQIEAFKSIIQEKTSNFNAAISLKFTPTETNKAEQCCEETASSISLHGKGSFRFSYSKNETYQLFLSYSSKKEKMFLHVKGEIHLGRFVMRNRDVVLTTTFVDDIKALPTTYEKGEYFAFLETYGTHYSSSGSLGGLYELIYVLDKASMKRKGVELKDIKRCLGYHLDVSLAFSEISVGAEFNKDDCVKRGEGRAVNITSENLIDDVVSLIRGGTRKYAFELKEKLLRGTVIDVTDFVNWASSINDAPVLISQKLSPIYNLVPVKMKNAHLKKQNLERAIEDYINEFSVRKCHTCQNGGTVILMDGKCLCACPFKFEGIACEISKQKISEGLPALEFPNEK

Molecule: 5,5′-((3-carboxy-5-((3-carboxy-4-oxocyclohexa-2,5-dien-1-ylidene)methyl)-4-hydroxybenzyl)-4-hydroxyphenyl)methylene)bis(2-hydroxybenzoic acid) [AHA]
- IC50 [1]: 559 nM
- stage at which membrane attack complex formation is arrested [2]: becomes arrested at the C8 stage

Molecule: O=C(O)C1=CC(=Cc2cc(C(c3ccc(O)c(C(=O)O)c3)c3ccc(O)c(C(=O)O)c3)cc(C(=O)O)c2O)C=CC1=O [AQA]
- IC50 [1]: 576 nM
- stage at which membrane attack complex formation is arrested [2]: becomes arrested at the C8 stage

Molecule: O=C(O)C1=CC(=C(c2ccc(O)c(C(=O)O)c2)c2ccc(O)c(C(=O)O)c2)C=CC1=O [ATA, 5,5′-((3-carboxy-4-oxocyclohexa-2,5-dienn-1-ylidene)methylene)bis(2-hydroxybenzoic acid)]
- IC50 ([1]; Erythrocyte): 544 nM
